In assay [1] the target is T1, human α-thrombin (Homo sapiens, UniProt P00734).
T1 construct: Bovine and human α-thrombins were supplied by Haematologic Technologies Inc (VT, USA); cleaved off efficiently by thrombin to generate the free N-terminus of the A-chain of human thrombin; purchased Haematologic Technologies Inc (VT, USA)
The assay can be described thus: Clotting assay: fibrinogen clotting by human thrombin, concentration doubling the clotting time (DCT) = IC50. The assay is classed as biochemical. Here is the method: The clotting assays were carried out by use of the protocols described previously (DiMaio, J., Gibbs, B., Munn, D., Lefebvre, J., Ni, F., and Konishi, Y. (1990) J. Biol. Chem. 265, 21698-21703; and Witting, J. I., Bourdon, P., Brezniak, D. V., Maraganore, J. M., and Fenton, J. W. (1992) Biochem. J. 283 (Pt 3), 737-743) The assay employs bovine plasma fibrinogen dissolved at 0.1% in 50 mM Tris-Cl, 100 mM NaCl, 0.1% PEG-8000 at pH 7.6 (i.e. the clotting buffer). Each assay mixture contained a certain concentration of the peptide, and the reaction was started by the addition of human thrombin to a final concentration of 0.1 NIH unit/ml. Optical absorbance of the assay mixtures was measured at 420 nm and 37° C. using the Spectramax™ plate reader. The onset clotting time was determined as an intersection of the baseline and the initial slope of the O.D. change as a result of fibrin clot formation. The concentration of a peptide needed to double the clotting time (DCT) was defined as IC50. Peptide concentrations were determined by comparing the O.D.280 values of peptide stock solutions in the clotting buffer (vide supra) with the predicted extinction coefficient for each peptide (Gill, S. C. and von Hippel, P. H. (1989) Anal. Biochem. 182, 319-326).
The peptide concentration for doubling the clotting time (DCT) was defined as the IC50 value.

The target in assay [2] is T1, human α-thrombin. The assay can be described thus: Inhibition of the amidolytic activity of thrombin (Tos-Gly-Pro-Arg-p-nitroanilide hydrolysis). The format is biochemical. Here is the method:
Kinetics of thrombin-catalyzed hydrolysis of the chromogenic substrate Tos-Gly-Pro-Arg-p-nitroanilide were followed by absorbance at 405 nm on a Spectramax plate reader thermostated at either 25° C. or 37° C. according to the method of Maragnore et al (supra). The concentrations of Tos-Gly-Pro-Arg-p-nitroanilide ranged from 2 to 400 μM. Initial rates were calculated under conditions of <15% hydrolysis of the total substrate. The KM and Vmax values were calculated accordingly and kcat values were determined by dividing Vmax by the enzyme (thrombin) concentration. The inhibition assays were performed in the clotting buffer with a certain fixed concentration of α-thrombin (˜0.3 nM) such that linear progress curves were achieved within at least 15 min in the absence of the inhibition. The total volume of the solution was fixed at 200 μl. Reactions were initiated by addition of the chromogenic substrate to the wells containing thrombin and a certain concentration of the peptide inhibitors premixed for less than 2 min. Alternatively, the substrate was first mixed with the peptide inhibitor and the total volume was adjusted to 120 μL using the clotting buffer. Eighty microliters of human α-thrombin in the clotting buffer (˜0.3 nM final concentration) was added to initiate the reaction. The concentration of the peptides ranged from 0.5 nM to 10 μM. Kinetics data from initial rate experiments were used to construct Lineweaver-Burke plot; i.e. the relationship of (substrate concentration)^−1 versus (initial velocity)^−1 which. were analysed by linear regression with MicroCal Origin 4.1 program (MicroCal, MD) or using the GraphPad Prism software. The Ki values of the inhibitors were determined using the equation: Ki=[I]/{(SL0/SL1)−1}, where
[I] is the inhibitor concentration,
SL0 is the slope of the reaction in the absence of inhibitors, and
SL1 is the slope of the reaction in the presence of the inhibitor.
Alternatively, Dixon plots of inverse velocity versus the inhibitor concentrations were generated with the Sigmaplot™ software. Every Dixon plot contained an array of data corresponding to different substrate concentrations and the Ki values were determined from the intersections. Following Peptide Cleavage by HPLC

Where [3] appears, read: Amidolytic assay, 25° C. (Ki, nM), Tos-Gly-Pro-Arg-pNA, 25° C.

Where “and” joins values, the source holds several entries; their conditions need not be identical. Identical values can stand only once. Like-named read-outs stand apart in the source and are kept apart here. Ends that are not written are not given here.

Usually IC50 stands for the concentration at which inhibition is half-maximal. By Ki is commonly meant the equilibrium dissociation constant of an inhibitor or competing ligand from its target. `CC[C@H](C)[C@H](NC(=O)[C@H](CCC(=O)O)NC(=O)[C@H](CCC(=O)O)NC(=O)[C@H](Cc1ccccc1)NC(=O)[C@H](CC(=O)O)NC(=O)CNC(=O)[C@H](CC(=O)O)NC(=O)[C@H](CC(N)=O)NC(=O)[C@H](Cc1c[nH]cn1)NC(=O)[C@H](CO)NC(=O)[C@H](CCC(N)=O)NC(=O)[C@@H]1CCCN1C(=O)[C@H](CCCNC(=N)N)NC(=O)[C@@H]1CCCN1C(=O)[C@H](CC(N)=O)NC(=O)[C@@H](N)Cc1ccccc1)C(=O)N1CCC[C@H]1C(=O)N[C@@H](CCC(=O)O)C(=O)N[C@@H](CCC(=O)O)C(=O)N[C@@H](Cc1ccc(O)cc1)C(=O)N[C@@H](CC(C)C)C(=O)N[C@@H](CCC(N)=O)C(=O)O` [FN22^(a)]: on human α-thrombin [1], the IC50 was determined as 150 ± 15 nM. The Ki on human α-thrombin [2] (setting [3]) worked out at 100 ± 10 nM.
As for `CC[C@H](C)[C@H](NC(=O)[C@H](CCC(N)=O)NC(=O)[C@@H]1CCCN1C(=O)[C@H](CCCNC(=N)N)NC(=O)[C@@H]1CCCN1C(=O)[C@H](CCC(N)=O)NC(=O)[C@@H](NC(=O)[C@H](CO)NC(=O)CN)[C@@H](C)CC)C(=O)N[C@@H](Cc1c[nH]cn1)C(=O)N[C@@H](CC(N)=O)C(=O)N[C@@H](CC(=O)O)C(=O)NCC(=O)N[C@@H](CC(=O)O)C(=O)N[C@@H](Cc1ccccc1)C(=O)N[C@@H](CCC(=O)O)C(=O)N[C@@H](CCC(=O)O)C(=O)N[C@H](C(=O)N1CCC[C@H]1C(=O)N[C@@H](CCC(=O)O)C(=O)N[C@@H](CCC(=O)O)C(=O)N[C@@H](Cc1ccc(O)cc1)C(=O)N[C@@H](CC(C)C)C(=O)N[C@@H](CCC(N)=O)C(=O)O)[C@@H](C)CC` [GS-IQ22-I], half-maximal inhibition against human α-thrombin [1] (IC50) required 10 ± 1 nM. For the same molecule, the Ki on human α-thrombin [2] (setting [3]) was greater than 400 nM. Moreover, on human α-thrombin [2] (up to 400 nM in concentration), the “amidolytic activity of thrombin in the presence of the peptide” value is “little affected”.
With FDPRPGGGGCNGDFEEIPEEYL [FD21-4GN], on human α-thrombin [1] (peptide concentration doubling the clotting time (DCT), 37° C., '>' values: no delay in clotting time up to the concentration shown, read-out: Clotting assay, 37° C. (IC50)), the IC50 was determined as 208 ± 8 nM. Moreover, the Ki at human α-thrombin [2] (read-out: Amidolytic assay, 25° C. (Ki), Tos-Gly-Pro-Arg-pNA, 25° C.) amounted to 300 ± 20 nM.
Molecule FNPRP [FN, FNPRP] displayed an IC50 against human α-thrombin [1] greater than 100000 nM. For the same molecule, the “IC50 values (in words)” value on human α-thrombin [1] (clotting assay, FNPRP peptide alone) was “submillimolar”. On human α-thrombin [2] (setting [3]), the Ki is greater than 2000 nM.
As to WDPRPQLHNDGDFEPIPEEYLQ [WD22-L-P], the IC50 against human α-thrombin [1] was ~26 nM and 26 nM. Further, at human α-thrombin [2] (setting [3]), the Ki was determined as 39 ± 4 nM.
As to WDPRPQRHNDGDFEPIPEEYLQ [WD22-R-P], on human α-thrombin [1], the IC50 was ~6.7 nM and 6.7 nM. Besides, the Ki at human α-thrombin [2] was determined as 171 ± 12 nM.
As for WDPRPQRHNDGDYEPIPEEYLQ [WD22-R-YP], inhibition on human α-thrombin [1] was half-maximal at 4.5 ± 2 nM (IC50). Besides, the Ki at human α-thrombin [2] was determined as 358 ± 23 nM.

Source of the values: patent publication US7456152B2, “Peptide inhibitors of thrombin as potent anticoagulants” (priority 2004, dated 2008).
